Target: T1, GPR43 (Mus musculus, UniProt Q8VCK6)
T1 sequence (Q8VCK6 1-330): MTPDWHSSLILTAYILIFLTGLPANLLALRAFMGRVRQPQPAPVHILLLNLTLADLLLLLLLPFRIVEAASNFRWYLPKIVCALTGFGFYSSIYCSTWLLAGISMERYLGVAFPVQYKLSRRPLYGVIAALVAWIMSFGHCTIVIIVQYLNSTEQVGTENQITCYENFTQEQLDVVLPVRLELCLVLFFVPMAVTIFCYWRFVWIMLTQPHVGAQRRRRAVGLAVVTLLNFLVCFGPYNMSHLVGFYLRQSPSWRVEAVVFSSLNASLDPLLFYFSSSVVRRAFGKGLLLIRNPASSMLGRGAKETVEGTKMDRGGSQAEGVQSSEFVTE
Type: cell-based

**Q.** Which EC50 does the source give for `CC(=O)CC(=O)O` [acetoacetate] here?
**A.** 760 µM

Reference: PMC6876247 (Proceedings of the National Academy of Sciences of the …, 2019)
